The text below walks through data of US5663297A, “Antithrombic peptides” (Hoffmann-La Roche Inc., priority 1989, dated 1997).

The structures appear in SMILES notation. *1 amine or outer side, *2 acyl side, *3 side chain or, on linkers, in order; H or OH if unused. Where a SMILES comes first, the peptide text is derived from it. [ ]: non-standard residue; d: D form. The star is where a group is joined. X1 = O=C(NCCN(CC(=O)[*:2])[*:1])OCc1ccccc1; 1Nal = N[C@@H](Cc1cccc2ccccc12)C(=O)O; Gly(N-2-aminoethyl) = NCCNCC(=O)O; Cbz = O=C(OCc1ccccc1)*

T1 sequence (P08514 32-887 limits assumed): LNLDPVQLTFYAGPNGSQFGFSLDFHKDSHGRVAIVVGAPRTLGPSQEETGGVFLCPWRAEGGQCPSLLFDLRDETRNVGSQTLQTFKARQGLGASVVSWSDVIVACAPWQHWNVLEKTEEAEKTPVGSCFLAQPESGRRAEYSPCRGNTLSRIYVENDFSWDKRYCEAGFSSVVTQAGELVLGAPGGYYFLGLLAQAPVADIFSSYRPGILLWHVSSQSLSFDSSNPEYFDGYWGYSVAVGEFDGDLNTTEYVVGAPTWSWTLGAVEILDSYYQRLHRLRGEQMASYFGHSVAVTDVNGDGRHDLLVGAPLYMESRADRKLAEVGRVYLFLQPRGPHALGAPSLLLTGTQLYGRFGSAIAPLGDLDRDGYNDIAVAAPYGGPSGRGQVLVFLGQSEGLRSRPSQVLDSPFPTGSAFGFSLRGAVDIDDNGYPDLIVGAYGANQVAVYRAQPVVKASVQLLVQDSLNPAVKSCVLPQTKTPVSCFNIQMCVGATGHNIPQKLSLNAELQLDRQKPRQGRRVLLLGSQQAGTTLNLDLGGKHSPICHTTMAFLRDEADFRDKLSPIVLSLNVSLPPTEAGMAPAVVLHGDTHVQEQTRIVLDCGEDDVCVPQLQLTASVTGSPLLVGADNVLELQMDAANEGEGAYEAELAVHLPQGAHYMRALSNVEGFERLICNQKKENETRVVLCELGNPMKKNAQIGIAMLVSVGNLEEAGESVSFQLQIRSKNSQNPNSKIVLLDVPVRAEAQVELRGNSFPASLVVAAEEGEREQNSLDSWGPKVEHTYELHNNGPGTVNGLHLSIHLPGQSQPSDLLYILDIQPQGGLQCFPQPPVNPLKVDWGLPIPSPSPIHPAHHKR
T1 sequence (P08514 891-1039 partner limits assumed): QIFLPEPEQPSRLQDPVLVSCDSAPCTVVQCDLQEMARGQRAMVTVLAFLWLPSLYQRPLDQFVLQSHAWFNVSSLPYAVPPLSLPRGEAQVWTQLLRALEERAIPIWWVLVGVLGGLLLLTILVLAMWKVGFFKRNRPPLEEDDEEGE
T1 sequence (P05106 27-788): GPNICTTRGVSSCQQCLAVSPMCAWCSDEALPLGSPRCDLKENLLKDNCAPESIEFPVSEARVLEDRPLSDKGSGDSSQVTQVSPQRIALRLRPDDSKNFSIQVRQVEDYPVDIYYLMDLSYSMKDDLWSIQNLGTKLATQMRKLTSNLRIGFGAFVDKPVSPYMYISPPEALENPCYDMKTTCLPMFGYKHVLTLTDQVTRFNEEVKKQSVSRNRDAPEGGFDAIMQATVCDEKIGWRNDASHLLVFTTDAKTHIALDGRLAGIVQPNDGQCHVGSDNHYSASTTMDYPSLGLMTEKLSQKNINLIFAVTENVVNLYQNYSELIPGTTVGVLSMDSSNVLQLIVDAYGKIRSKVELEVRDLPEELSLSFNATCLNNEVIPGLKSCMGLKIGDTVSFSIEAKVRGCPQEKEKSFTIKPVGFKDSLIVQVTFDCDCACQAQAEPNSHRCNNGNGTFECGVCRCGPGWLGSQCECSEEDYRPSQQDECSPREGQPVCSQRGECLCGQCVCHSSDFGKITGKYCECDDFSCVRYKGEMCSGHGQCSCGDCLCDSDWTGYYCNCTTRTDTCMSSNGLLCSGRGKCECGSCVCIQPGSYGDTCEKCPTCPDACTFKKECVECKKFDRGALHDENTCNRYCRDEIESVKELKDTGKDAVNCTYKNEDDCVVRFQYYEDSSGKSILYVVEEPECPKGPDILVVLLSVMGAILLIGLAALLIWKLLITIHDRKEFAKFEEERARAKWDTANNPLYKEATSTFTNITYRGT

One data set has as its target T1, fibrinogen receptor, glycoprotein IIb/IIIa (Homo sapiens, UniProt P05106+P08514).
T1 construct: from tissue
Briefly: Inhibition of fibrinogen binding to immobilized glycoprotein IIb/IIIa (ELISA). To be noted: concentration required to inhibit binding of fibrinogen to the immobilized receptor from human blood platelets by 50%. The procedure:
The glycoprotein IIb/IIIa is obtained-from Triton X-100 extracts of human blood platelets and purified by lectin affinity chromatography (Analytical Biochemistry 151, 1985, 169-177) and chromatography on an Arg-Gly-Asp-Ser affinity column (Science 231, 1986, 1559-62). The thus-obtained receptor protein is bonded to microtitre plates. The specific binding of fibrinogen to the immobilized receptor is determined with the aid of an ELISA system ("enzyme-linked immunosorbent assay"). The IC50 values hereinafter correspond to that concentration of the test substance which is required to inhibit the binding of fibrinogen to the immobilized receptor by 50%: […]
On the technique in general: An ELISA detects its analyte on a solid surface through an enzyme-linked reagent.
One may read the IC50 as the concentration at which inhibition is half-maximal. Low readings indicate inhibition by little substance, high ones a need for much substance. The molecule `CC(C)[C@H](NC(=O)[C@H](CC(=O)O)NC(=O)CNC(=O)[C@H](CCCNC(=N)N)NC(=O)CNCCN)C(=O)O` [Example 7, Aeg-Arg-Gly-Asp-Val-OH] (H-[Gly(N-2-aminoethyl)]RGDV-OH) showed an IC50 of 0.09 µM.
Still for that read-out and setting: the value for `CC(C)[C@H](NC(=O)[C@H](CC(=O)O)NC(=O)CNC(=O)CCc1ccc(CN)cc1)C(=O)O` [Example 23, (p-aminomethylhydrocinnamoyl)-Gly-Asp-Val-OH] was 0.21 µM; that for `CC(C)[C@H](NC(=O)[C@H](CC(=O)O)NC(=O)CNC(=O)C(Cc1ccc(C(=N)N)cc1)NC(=O)OC(C)(C)C)C(=O)O` (mixture of isomers) [Example 17, [N-Boc-3-(p-amidinophenyl)-DL-alanyl]-Gly-Asp-Val-OH] was 0.016 µM.
Take `N=C(N)NCCC[C@H](NC(=O)CNCCN)C(=O)NCC(=O)N[C@@H](CC(=O)O)C(=O)N[C@@H](CO)C(=O)O` [Example 8, Aeg-Arg-Gly-Asp-Ser-OH]: the IC50 was found to be 0.11 µM. Against the preceding molecule, the IC50 is about 6.9-fold higher.
`CC(C)[C@H](NC(=O)[C@H](CC(=O)O)NC(=O)CNC(=O)COc1ccc(C(=N)N)cc1)C(=O)O` [Example 26, (p-amidinophenoxy)acetyl-Gly-Asp Val-OH]: the half-maximal inhibitory concentration (IC50) is 0.005 µM.
Same read-out and setting: the value for `CC(C)[C@H](NC(=O)[C@H](CC(=O)O)NC(=O)CNC(=O)C(Cc1ccc(NC(=N)N)cc1)NC(=O)OC(C)(C)C)C(=O)O` (mixture of isomers) [Example 15, [N-Boc-3-(p-guanidinophenyl)-DL-alanyl]-Gly-Asp-Val-OH] was 0.08 µM; that for `CC(C)[C@H](NC(=O)[C@H](CC(=O)O)NC(=O)CNC(=O)[C@H](CCCNC(=N)N)NC(=O)CN(CCNC(=O)OCc1ccccc1)C(=O)OCc1ccccc1)C(=O)O` [Example 6, Z-Aeg(Z)-Arg-Gly-Asp-Val-OH] (Cbz-[X1]RGDV-OH) was 0.15 µM.
`N=C(N)NCCC[C@H](NC(=O)CNCCN)C(=O)NCC(=O)N[C@@H](CC(=O)O)C(=O)N[C@@H](Cc1cccc2ccccc12)C(=O)O` [Example 10, N-Aeg-Arg-Gly-Asp-Nal(1)-OH] (H-[Gly(N-2-aminoethyl)]RGD[1Nal]-OH): the IC50 stood at 0.038 µM.
Still for that read-out and setting: the value for `CC(C)[C@H](NC(=O)[C@H](CC(=O)O)NC(=O)CNC(=O)[C@H](N)Cc1ccc(C(=N)N)cc1)C(=O)O` [Example 20, [3-(p-amidinophenyl)-D-alanyl]-Gly-Asp-Val-OH] was 0.022 µM; that for `CC(C)[C@H](NC(=O)[C@H](CC(=O)O)NC(=O)CNC(=O)Cc1ccc(C(=N)N)cc1)C(=O)O` [Example 27, (p-amidinophenyl)acetyl-Gly-Asp-Val-OH] was 0.0019 µM.
On the same count and under the same terms, next, `CC[C@H](C)[C@H](NC(=O)[C@H](CC(=O)O)NC(=O)CNC(=O)[C@H](CCCNC(=N)N)NC(=O)CNCCN)C(=O)O` [Example 11, Aeg Arg- Gly-Asp-Ile-OH] (H-[Gly(N-2-aminoethyl)]RGDI-OH): 0.12 µM; `CC(=N)NCCCC[C@H](NC(=O)OC(C)(C)C)C(=O)NCC(=O)N[C@@H](CC(=O)O)C(=O)N[C@H](C(=O)O)C(C)C` [Example 12, [N2-Boc-N6 -(1-iminoethyl)-L-lysyl]Gly-Asp-Val- -OH]: 0.11 µM; `[N-]=[N+]=Nc1ccccc1C(=O)N[C@@H](CCCNC(=N)N)C(=O)NCC(=O)N[C@@H](CC(=O)O)C(=O)Nc1ccccc1C(=O)O` [Example 13, N-[(o-azidobenzoyl)-Arg-Gly-Asp]-anthranilic acid]: 0.11 µM.
As to `N=C(N)c1ccc(CC(N)C(=O)NCC(=O)N[C@@H](CC(=O)O)C(=O)N[C@@H](Cc2cccc3ccccc23)C(=O)O)cc1` (mixture of isomers) [Example 16, [3-(p-amidinophenyl)-DL-alanyl]-Gly-Asp-Nal(1)-OH], the half-inhibitory concentration (IC50) worked out at 0.022 µM.
As for `CC(C)[C@H](NC(=O)[C@H](CC(=O)O)NC(=O)CNC(=O)[C@H](CCCNC1=NC2(O)CCCCC2(O)N1)NC(=O)OC(C)(C)C)C(=O)O` (stereo partly drawn) [Example 14, [N2-Boc-N5-(3a,4,5,6,7,7a-hexahydro-3a,7a-dihydroxy-1H-benzimidazol-2-yl)- L-ornithyl]-Gly-Asp-Val-OH], the concentration for half-maximal inhibition (IC50) was determined as 0.054 µM.
The same measure, in the same setting: the value for `N=C(N)c1ccc(CCC(=O)NCC(=O)N[C@@H](CC(=O)O)C(=O)N[C@@H](Cc2cccc3ccccc23)C(=O)O)cc1` [Example 19, (p-amidinohydrocinnamoyl)-Gly Asp-Nal(1)-OH] was 0.011 µM.
Regarding `CC(C)[C@H](NC(=O)[C@H](CC(=O)O)NC(=O)CNC(=O)CCc1ccc(C(=N)N)cc1)C(=O)O` [Example 24, (p-amidinohydrocinnamoyl)-Gly-Asp-Val-OH], the 50% inhibitory concentration (IC50) was determined as 0.035 µM.
On the same count and under the same terms, next, `CC(C)[C@H](NC(=O)[C@H](CC(=O)O)NC(=O)CNC(=O)[C@@H](N)Cc1ccc(C(=N)N)cc1)C(=O)O` [Example 25, [3-(p-amidinophenyl)-L-alanyl]-Gly-Asp-Val-OH]: 0.023 µM; `CC(C)[C@H](NC(=O)[C@H](CC(=O)O)NC(=O)CNC(=O)C(N)Cc1ccc(C(=N)N)cc1)C(=O)O` (mixture of isomers) [Example 2, [3-(p-amidinophenyl)-DL-alanyl]-Gly-Asp-Val-OH]: 0.016 µM.

The next data set concerns mouse. Briefly: Acute toxicity, intravenous, mouse. It is filed as in vivo. To be noted: intravenously in the mouse. The procedure: The compounds of formula I have a low toxicity. Thus the product of Example 2 has a LD50 of 600 mg/kg intravenously in the mouse.
A word on the LD50: it is the dose at which mortality reaches 50%. Low readings indicate a more toxic substance, high ones a less toxic substance. Molecule `CC(C)[C@H](NC(=O)[C@H](CC(=O)O)NC(=O)CNC(=O)C(N)Cc1ccc(C(=N)N)cc1)C(=O)O` (mixture of isomers) [Example 2, [3-(p-amidinophenyl)-DL-alanyl]-Gly-Asp-Val-OH] came in with a median lethal dose (LD50) of 600 mg/kg.
